# From patent US20150307573A1, “CYLINDRINS AS ETIOLOGIC AGENTS OF AMYLOID DISEASES” (The Regents of the University of California, priority 2012, published 2015)
# Read-outs that look alike come from different tables or passages of the source. Where no end group is shown, it is not given here.
# What was measured:
# [1] = tested on: HeLa, HEK293, PC-12 and SH-SY5Y cells
# polyclonal antibody A11 = assay: Immuno-dot blot with oligomer-specific antibody A11; type: binding
# Experimental: (§1) Briefly, a small aliquot of cylindrin peptide samples, at a concentration of a few mg/mL, were spotted onto a nitrocellulose membrane (Trans-Blot, Bio-Rad, Hercules, Calif.). After blocking with 10% fat free milk in TBST buffer (50 mM Tris, 150 mM NaCl, 0.05% Tween20), the membranes were incubated with polyclonal antibody or monoclonal antibody (˜1:250 dilution in 5% fat free milk, TBST buffer) at room temperature for 1 hour. The membranes were washed three times in TBST buffer before incubating with anti-rabbit HRP-linked antibody (1:5000 dilution in 5% fat free milk, TBST buffer) (Invitrogen, Carlsbad, Calif.) at room temperature for 1 hour. After washing the membranes three times in TBST buffer, the films were developed following the protocol as described in the Kit (Thermo Scientific Pierce ECL Western Blotting Substrate, #32209). Positive controls for A11 and OC were prefibrillar oligomers and fibrils, respectively (14).
# [2] = Membrane leakage (liposome calcein dye-release) experiments; type: biochemical; conditions: for maximum leakage (calcein release): 5, 20, 50 μM peptide, up to 30 hours; for liposome integrity / dye release: FIG. 8
# Experimental: Calcein-containing LUVs were prepared as described previously (19), with minor modifications. 1-palmitoyl-2-oleoyl-sn-glycero-3-phosphocholine (POPC) and 1-palmitoyl-2-oleoyl-sn glycero-3-phospho-L-glycerol (POPG) were obtained from Avanti Polar Lipids (Alabaster, Ala.). Mixtures of POPC and POPG in a 7:3 molar ratio were dissolved in 1:1 chloroform:methanol. The solvent was evaporated under dry nitrogen gas to yield a lipid film that was further dried under vacuum for at least 24 hours to remove any residual organic solvent. The film was then hydrated in 70 mM calcein (Sigma Aldrich, St. Louis, Mo.) and 10 mM Tris-HCl (pH 7.4) at a lipid concentration of 5 mM. The suspensions were subjected to 10 freeze-thaw cycles of temperatures of −80 and 50° C., followed by extrusion through two 0.2 μm pore size filters (Whatman, Florham Park, N.J.). Non-encapsulated calcein was separated from calcein-filled LUVs by size exclusion using a Sephadex G-75 (GE Healthcare, Piscataway, N.J.) equilibrated in buffer (10 mM Tris-HCl pH 7.4, 100 mM sodium chloride). The calcein-containing LUVs were concentrated to 3-5 mM and stored at 4° C. Phospholipid content and concentrations of the LUVs were determined by RP-HPLC using 100% Methanol and 100 mM TEAC (tetraethylammonium chloride) pH 7.8 as the solvent and a C18 column. Diameter of LUVs were determined using a Microtrac UPA 150 (York, Pa.). […] LUVs were used for experiments within 5 days of preparation.
# Pure, lyophilized K11V-TR and K11VV2L-TR peptides were solubilized in water. Three different stock solutions were made at concentrations of 0.2, 0.8, and 2 mM. 5 uL of each peptide stock solution was added to a well containing 195 uL of 7:3 calcein-containing POPC:POPG LUVs in a buffer (10 mM Tris-HCL pH 7.4, 100 mM sodium chloride). Dye leakage was measured using a SpectraMax5 (Molecular Devices, Sunnyvale, Calif.) at 485 nm excitation and a 535 nm emission. Measurements were taken every 10 minutes for 30 hours. Each well contains a final LUV concentration of 100 μM with final K11V-TR and K11VV2L-TR construct concentrations of 5, 20, and 50 μM. Synthetic human Islet Amyloid Polypeptide (hIAPP) residues 8-37, purchased from CS-Bio (Menlo Park, Calif.), was used as a positive control; since hIAPP has been previously shown to interact and disrupt membranes (15, 16). Lyophilized hIAPP was dissolved in 100% hexafluoro-2-propanol (HFIP) and put under vacuum to evaporate the HFIP. hIAPP was then reconstituted in water at 0.2 mM, filtered using a 0.2 μm filter, and added to six wells containing 100 μM Calcein-containing LUVs to a final concentration of 5 μM hIAPP. Fluorescence at a given time point was normalized as described previously (20), using the equation: Fnormalized=(Ft−Fmin)/(Fmax−Fmin) Ft is the measured fluorescence intensity, Fmin the fluorescence of 100 μM calcein-containing LUVs alone, and Fmax is the maximum fluorescence determined by incubation of 100 μM LUVs in the presence of 0.5% Triton X-100.
# [3] = tested on: Hela; ES derived motor neurons (GFP+); assay: Toxicity assay of SOD1 cylindrins (MTT, visual inspection of GFP+ neuron morphologies); type: cell-based
# OC antibody = assay: Immuno-dot blot with fibril-specific antibodies OC; type: binding
# Experimental: as §1
# in vitro = conditions: human (HeLa, HEK293, SH-SY5Y); rat (PC-12)
# [4] = target: the molecule itself; assay: native nanoelectrospray mass spectrometry; self-association of identical chains
# Experimental: The cylindrin peptide abbreviation (see Table 1) is labeled for the respective mass spectrum in the upper right corner of the inset. (A) Mass spectrum of cylindrin peptide, K11VV2L dissolved directly in 200 mM ammonium acetate buffer. Expansion of the hexameric oligomers with n-1 and n-2 dissociation products (see for review (13)), shown in inset. […] The n-1 (pentamer) and n-2 (tetramer) dissociated species are located under the respective label, corresponding to ions with +4 and +3 charge states, respectively. The 1231.76 ion corresponds to the K11VV2L peptide chain with a +1 charge state. (B) Native mass spectrum of K11V-TR purified by size exclusion chromatography (see methods for details). […] The labeled +2 and +6 charge state ions correspond to one and four peptide chains, respectively. […]
# One to five milligrams of lyophilized peptide was dissolved in 1 mL of water and filtered through a 0.22 or 0.45 μm Centrex MF filter (Whatman, Florham Park, N.J.). […] Absorbance at 220 nm and 280 nm were recorded using a Waters 2487 dual λ absorbance detector (Waters, Milford, Mass.). Protein standards were monitored by absorbance at 280 nm, and cylindrin peptides monitored by absorbance at 220 nm.
# [5] = target: the molecule itself; assay: X-ray crystal structure; self-association of identical chains
# Experimental: The SOD1-derived peptide […] (SEQ ID NO:61) was crystallized and data collection was performed as follows: The peptide was crystallized via hanging-drop vapor diffusion at 18° C. The peptide was dissolved at 50 mg/mL in 50 mM Tris, then was mixed 1:1 with the reservoir solution: 0.2M Na Citrate pH 5, 13% PEG 6000. The peptide grew into needle-shaped crystals in 2-3 days. For data collection, hundreds of crystals were mounted because of their quick decay. However, two larger crystals were able to be used to collect complete data sets, by diffracting from several points along the length of the crystals. Diffraction from iodine-soaked crystals was used to obtain phases by SIRAS.
molecule,measurement,setting,value
GDVIEV [G6V fibrils],toxicity of fibrils,"[1]; fibrils, in contrast to oligomeric solutions",no toxicity
KLKVLGDVIEV [Peptide K11VV2L],recognition by A11 antibody,polyclonal antibody A11,recognized by A11
GKLKVLGDVIEVGGKLKVLGDVIEV [Peptide K11V-TR],maximum leakage (calcein release),[2]; 100 μM LUVs,10%
same,liposome integrity / dye release,[2],did not exhibit this trend
same,recognition by A11 antibody,polyclonal antibody A11,recognized by A11
same,cell toxicity,"[1]; different peptide concentrations, HEK293, HeLa, PC12, SH-SY5Y, FIG. 7",concentration dependent cell toxicity
same,cell toxicity (cell viability),"[1]; final concentration 100 μM, four mammalian cell lines, FIG. 1F",toxic
cylindrin: six-stranded anti-parallel barrel oligomer of K11V (KVKVLGDVIEV),recognition by A11 antibody,polyclonal antibody A11,recognizes
KVKVWGSIGKL [KVKVWGSIKGL],toxicity to cultured cells,[3]; peptide (cylindrin),toxic
same,toxicity to cultured cells,[3]; peptide amyloid-like fibrils,non-toxic
GKLKVLGDVIEVGGKLKVLGDVIEV [K11V-TR fibrils] (not fully specified),recognition by A11 antibody,polyclonal antibody A11,recognized only by the OC antibody
same,recognition by OC antibody,OC antibody,recognized only by the OC antibody
same,recognition by OC antibody,OC antibody; listed as fibrils of K11V-TR,immunoreactive
GKVKVLGDVIEVGGKVKVLGDVIEV [K11V-TR (wild-type)],maximum leakage (calcein release),[2]; 100 μM LUVs,10%
"hIAPP8-37: Synthetic human Islet Amyloid Polypeptide residues 8-37, positive control (ATQRLANFLVHSSNNFGAILSSTNVGSNTY; ends and bridges not checked; UniProt P10997 41-70, looked up, fragment) [reference compound]",leakage (calcein release),"[2]; 5 μM positive control, 100 μM LUVs",up to 60%
same,liposome integrity / dye release,[2],clearly diminished liposome integrity leading to dye release
H-GKLKWLGDVIEVGGKLKWLGDVIEV-OH [Peptide K11VV4W-TR],"viability at 24 h, 100 µM",in vitro,~100%
"KLKVLGDVIEV (Forms hexameric oligomers (native MS, crystal structure 3SGP); also called single segment; alphaB crystallin residues 90-100 mutant V91L) [K11VV2L cylindrin peptide (KLKVLGDVIEV), oligomeric solution]",binding result,[4],binds
"GKLKVLGDVIEVGGKLKVLGDVIEV (Trimer of 25-residue chains (SEC, native MS, crystal structure 3SGR); also called K11VV2L-TR; tandem repeat segment) [K11V-TR tandem repeat cylindrin peptide (tandem repeat of K11VV2L), oligomeric solution]",binding result,[4],binds
"KVKVWGSIKGL (Open-ended oligomer (corkscrew), 16 strands per turn, any number of peptide units; also called SOD1 cylindrin; kv11) [SOD1-derived peptide KVKVWGSIKGL, SOD1(29-39) P29K]",binding result,[5],binds
